Results taken from patent US12295936B2, “Immunomodulating urea azalides” (Zoetis Services LLC, priority 2020, dated 2025).
In brackets after ≈: the same amount, converted by molar mass. Entries after “also recorded” stand apart in the source; their conditions may differ. Like-named read-outs stand apart in the source and are kept apart here.

Assays:
IL-6 [1] = test: LPS-stimulated whole bovine blood assay, MSD cytokine detection; format: cell-based; conditions: for IC50: Bos taurus, LPS-stimulated bovine whole blood, read-out: IL-6 (IC50 μM)
From the text: In order to correlate RNA sequencing data to cytokine changes the whole blood assay was utilized. […] The enhancement result represents an overall stimulation of cytokine levels due to cellular stress or potential toxicity with increasing concentrations of the compound, representing a typical bell shape response curve for immunomodulatory activity.

[2] = tested on: bovine alveolar macrophages; test: Phospholipidosis assay (HCS LipidTox, Incucyte); format: cell-based; conditions: Bos taurus, Macrophage
From the text: The second immunomodulation in vitro assay evaluated the potential for phospholipidosis with the compounds of the invention in bovine alveolar macrophages. This assay is utilized to determine cellular uptake of the compounds of the invention in relevant bovine and murine cell types. This assay utilized Invitrogen's commercially available HCS LipidTox detection kit with an Incucyte real time fluorescence reader to observe variations in EC50 and phospholipidosis profiles based on compound concentrations. Murine intraperitoneal macrophages were also used in the same assay to evaluate species variability for potential correlation with mouse efficacy results. The combination of the bovine whole blood assay and phospholipidosis assays enabled rank ordering for progression into in vivo testing in the murine challenge model.

Lipophilicity (logP) = format: physicochemical
From the text: The lipophilicity of an organic compound can be described by a partition coefficient, log P, which can be defined as the ratio of the concentration of the unionized compound at equilibrium between organic and aqueous phases. Generally speaking, more lipophilic compounds are less soluble in aqueous media. A negative value for log P means the compound has a higher affinity for the aqueous phase (hydrophilic); when log P=0 the compound is equally partitioned between the lipid and aqueous phases; a positive value for log P denotes a higher concentration in the lipid phase (lipophilic). Lipophilicity is a major determining factor in a compound's absorption, distribution in the body, penetration across vital membranes and biological barriers, metabolism and excretion. The compounds of the invention are lipophilic (log P˜0.503 to 5.96) which aid in their transport and absorption into respiratory tissues, e.g., lungs.

P. multocida 46572 = test: In vivo mouse lung infection challenge model (murine efficacy); design: species or system CD-1 female mice; conditions: for clinical efficacy in murine P. multocida infection: airway tissues collected longitudinally for transcriptomic analysis; for Mouse Murine Percent Survival: 20 mg/kg subcutaneous, harmonized against the comparative vehicle survival rate
Procedure, shortened: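 CD-1 female mice challenged intranasally with P. multocida 46572 at mid-log phase (target 5×10^2 CFU/mouse). Compounds given subcutaneously at 20 mg/kg in buffered (~pH 5.4) propylene glycol/monothioglycerol/water. Mortality observed Days 1–10, analysed by generalized mixed model; survival harmonized against vehicle survival rate.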

[3] = tested on: bovine respiratory disease (BRD); test: Natural bovine respiratory disease (field) studies; format: in vivo, cattle; conditions: for Percent failure (treatment failure): 14-day observation, beef calves at moderate risk for BRD, saline 43%
[4] = tested on: M. haemolytica (OSU-012103-BHI); conditions: for Back Transform LS % Lung with Lesions / Range % Lung with Lesions: sc
M. haemolytica = test: In-vitro MIC model (CLSI broth micro-dilution); conditions: Mannheimia haemolytica
P. multocida = test: In-vitro MIC model (CLSI broth micro-dilution); conditions: Pasteurella multocida
H. somni = test: In-vitro MIC model (CLSI broth micro-dilution)
IL-6 [5] = test: Plasma IL-6 biomarker in bovine M. haemolytica challenge; conditions: for IL-6 levels (plasma) in bovine M. haemolytica challenge: in vivo
[6] = tested on: BRD pathogens, M. haemolytica and P. multocida; test: MIC screening panel of BRD pathogens (antibacterial / non-antibacterial)
[7] = read-out: MIC to the M. haemolytica challenge strain
[8] = read-out: antibacterial / non-antibacterial (MIC for the BRD pathogens)
[9] = 32 hours post challenge, dosed 24 hours prior to challenge

SMILES | IC50 (IL-6 [1]) [µM] | EC50 [2] [µM] | logP (Lipophilicity (logP)) | clinical efficacy in murine P. multocida infection (P. multocida 46572) | MIC (M. haemolytica; [7]) [µg/mL] | IL-6 levels (plasma) in bovine M. haemolytica challenge (IL-6 [5]) | MIC [6, 8] [µg/mL] | Mouse Murine Percent Survival (P. multocida 46572; P. multocida challenge) [%] | Back Transform LS % Lung with Lesions ([4]; 0.5 mg/kg) [%] | Range % Lung with Lesions ([4]; 0.5 mg/kg) [%] | Back Transform LS % Lung with Lesions ([4]; 2.5 mg/kg) [%] | Range % Lung with Lesions ([4]; 2.5 mg/kg) [%] | MIC (M. haemolytica) [µg/mL] | MIC (P. multocida) [µg/mL] | MIC (H. somni; Histophilus somni) [µg/mL] | in vitro activity vs. clinically relevant pathogenic strains for BRD (M. haemolytica and P. multocida) [6] | also measured
CCCNC[C@]1(O)[C@H](C)O[C@@H](O[C@H]2[C@H](C)[C@@H](O[C@@H]3O[C@H](C)C[C@H](NC)[C@H]3O)[C@](C)(O)C[C@@H](C)CN[C@H](C)[C@@H](O)[C@](C)(O)[C@@H](CC)OC(=O)[C@@H]2C)C[C@@]1(C)OC [Example M9, (2R,3S,4R,5R,8R,10R,11R,12S,13S,14R)-2-ethyl-3,4,10-trihydroxy-13-(((2R,4R,5S,6S)-5-hydroxy-4-methoxy-4,6-dimethyl-5-((propylamino)methyl)-tetrahydro-2H-pyran-2-yl)oxy)-11-(((2S,3R,4S,6R)-3-hydroxy-6-methyl-4-(methylamino)tetrahydro-2H-pyran-2-yl)oxy)-3,5,8,10,12,14-hexamethyl-1-oxa-6-azacyclopentadecan-15-one, reference compound] | > 250 | 3740 | 2.2 | clinically efficacious | > 64 | significantly reduced; also recorded: downregulated | < 64 |  |  |  |  |  |  |  |  |  | Mouse survival (P. multocida 46572; positive control, 20 mg/kg, P. multocida challenge): 90-100%; Percent failure (treatment failure) ([3]; 5 mg/kg (T02)): 19.3%; Percent failure (treatment failure) ([3]; 10 mg/kg (T03)): 8.8%; lung lesions ([4]; 10 mg/kg, separate study, saline control 31%): 20%; MIC50 (M. haemolytica): > 64 µg/mL; MIC90 (M. haemolytica): > 64 µg/mL; MIC (M. haemolytica; ATCC33396, read-out: Comparative MIC's, M. haemolytica ATCC 33396): 32 µg/mL (≈ 40.4 µM); MIC (M. haemolytica; read-out: Comparative MIC's, M. haemolytica 12726): 32 µg/mL (≈ 40.4 µM); MIC (M. haemolytica; read-out: Comparative MIC's, M. haemolytica 46571*): 32 µg/mL (≈ 40.4 µM); MIC50 (P. multocida): 16 µg/mL (≈ 20.2 µM); MIC90 (P. multocida): > 64 µg/mL; MIC (P. multocida; ATCC43137, read-out: Comparative MIC's, P. multocida ATCC 43137): 16 µg/mL (≈ 20.2 µM); MIC Range (H. somni; H. somni (25) lung isolates at necropsy, natural BRD study): 8 to 64 µg/mL; MIC50 (H. somni; Histophilus somni): 32 µg/mL (≈ 40.4 µM); MIC90 (H. somni; Histophilus somni): 32 µg/mL (≈ 40.4 µM); MIC ([6]; read-out: MIC for the BRD bacterial strains tested / target pathogens): ≤ 64 µg/mL
CCCNC[C@]1(O)[C@H](C)O[C@@H](O[C@H]2[C@H](C)[C@@H](O[C@@H]3O[C@H](C)C[C@H](N(C)C(=O)N(C)c4ccccc4)[C@H]3O)[C@](C)(O)C[C@@H](C)CN[C@H](C)[C@@H](O)[C@](C)(O)[C@@H](CC)OC(=O)[C@@H]2C)C[C@@]1(C)OC [Example H-11, 1-((2S,3R,4S,6R)-2-(((2R,3S,4R,5R,8R,10R,11R,12S,13S,14R)-2-ethyl-3,4,10-trihydroxy-13-(((2R,4R,5S,6S)-5-hydroxy-4-methoxy-4,6-dimethyl-5-((propylamino)methyl)tetrahydro-2H-pyran-2-yl)oxy)-3,5,8,10,12,14-hexamethyl-15-oxo-1-oxa-6-azacyclopentadecan-11-yl)oxy)-3-hydroxy-6-methyltetrahydro-2H-pyran-4-yl)-1,3-dimethyl-3-phenylurea] | 22 | 4 | 3.2 | clinically efficacious |  | reduced; also recorded: downregulated | > 64 | 36 | 28 | 0 to 68 | 21 | 2 to 70 | > 64 | > 64 | > 64 | lack of in vitro activity | expression of IL-6, LPS stimulated whole bovine blood (IL-6 [1]; 4 independent studies with multiple blood donors, FIG. 4): dose dependent reduction; Treatment success ([3]; 0.03 mg/kg (T02) subcutaneous Day 0, natural field study to Day 7, saline 32.1%): 58.3%; Treatment success ([3]; 0.1 mg/kg (T03) subcutaneous Day 0, natural field study to Day 7, saline 32.1%): 60.7%; Treatment success ([3]; 0.3 mg/kg (T04) subcutaneous Day 0, natural field study to Day 7, saline 32.1%): 51.2%; Treatment success ([3]; 1 mg/kg (T05) subcutaneous Day 0, natural field study to Day 7, saline 32.1%): 40.5%; reduction in IL-6 levels (geometric mean) (IL-6 [5]; [9]): 51%; reduction in IL-6 levels (median value) (IL-6 [5]; [9]): 43%
CCCNC[C@]1(O)[C@H](C)O[C@@H](O[C@H]2[C@H](C)[C@@H](O[C@@H]3O[C@H](C)C[C@H](N(C)C(=O)Nc4ccccc4)[C@H]3O)[C@](C)(O)C[C@@H](C)CN[C@H](C)[C@@H](O)[C@](C)(O)[C@@H](CC)OC(=O)[C@@H]2C)C[C@@]1(C)OC [Example H-91, 1-((2S,3R,4S,6R)-2-(((2R,3S,4R,5R,8R,10R,11R,12S,13S,14R)-2-ethyl-3,4,10-trihydroxy-13-(((2R,4R,5S,6S)-5-hydroxy-4-methoxy-4,6-dimethyl-5-((propylamino)methyl)tetrahydro-2H-pyran-2-yl)oxy)-3,5,8,10,12,14-hexamethyl-15-oxo-1-oxa-6-azacyclopentadecan-11-yl)oxy)-3-hydroxy-6-methyltetrahydro-2H-pyran-4-yl)-1-methyl-3-phenylurea] | 181 | 88 | 3.1 | clinically efficacious | > 256 | reduction; also recorded: downregulated | > 64 | 38 | 8 | 0 to 39 | 9 | 0 to 58 | > 256 | > 256 | > 64 | lack of in vitro activity | Treatment success ([3]; 0.5 mg/kg (T02) subcutaneous Day 0, natural field study to Day 7, saline 43.0%): 57.9%; Treatment success ([3]; 2.5 mg/kg (T03) subcutaneous Day 0, natural field study to Day 7, saline 43.0%): 43.9%; MIC (M. haemolytica; read-out: MIC against all M. haemolytica target pathogens tested): > 256 µg/mL
